Where a name gives a salt, the structure may show the parent alone. Read-outs that look alike come from different tables or passages of the source.
Tests used:
Ba/F3 KRAS-G12D cells = Ba/F3 KRAS-G12D cells (Homo sapiens, UniProt P01116, G12D, cells depend on it); experiment: Proliferation inhibitory activity on Ba/F3 KRAS-G12D stably transfected cell line (CellTiter-Glo, 72 hours); assay type: cell-based, mouse; conditions: read-out: Ba/F3 KRAS-G12D IC50
Source text: (§1) Test Example 1: Proliferation Inhibitory Activity on Ba/F3 KRAS-G12D, Ba/F3 KRAS-G12V Stably Transfected Cell Lines and AGS Tumor Cell Lines Containing KRAS G12D Mutations
(§2) To determine the proliferation inhibitory activity of the compounds in vitro on mouse pro-B cells Ba/F3 (Ba/F3 KRAS-G12D and Ba/F3 KRAS-G12V cells stably expressing KRAS G12D/V mutant proteins) and gastric cancer AGS cells expressing KRAS G12D mutant protein.
(§3) Cell sources. Ba/F3 KRAS-G12D and Ba/F3 KRAS-G12V were purchased from Kyinno Biotech (Beijing) Co., Ltd, Cat. No.: KC-1259 and KC-1261, respectively; AGS was purchased from Shanghai Bioleaf Biotech Co., Ltd.
(§4) Cells in the logarithmic growth phase were seeded in a 96-well plate (8000, 8000, 4000 cells/well, 90 μL/well for Ba/F3 KRAS-G12D, Ba/F3 KRAS-G12V, and AGS cells respectively), incubated at 37° C. for 1 day with 5% CO2, and then a gradient dilution of the test compound was added thereto (compounds 1 to 28 and comparative compounds). The details were as follows, the compound stock solution (10 mM) previously dissolved in DMSO was diluted to 10 gradient concentrations at a fold ratio (4 fold) and diluted to 10 fold of the target concentration in another 96-well plate with culture medium, and then 10 μL/well of the compound solution was added to the 96-well plate seeded with cells to reach the target concentration (10000, 2500, 625, 156, 39, 10, 2.5, 0.6, 0.15, 0.04 nM). Each concentration was provided with 3 duplicate wells and a blank control. After continued incubation at 37° C. and 5% CO2 for 72 hours, 50 μL of CellTiter-Glo*2.0 reagent (luciferase ATP bioluminescence detection reagent, purchased from Promega, Cat. No.: G9243) was added to each well, shaken for 2 minutes, and incubated at room temperature for 8 minutes, and then fluorescence luminescence intensity was detected (light collection time was 100 ms). The inhibitory rate of compounds with various concentrations on cell proliferation was calculated. Cell proliferation inhibition rate (%)=[(luminous intensitycontrol group containing cell culture medium for 72 hour−luminous intensitycompound group for 72 hour)/(luminous intensitycontrol group containing cell culture medium for 72 hours−luminous intensitycontrol group without cell culture medium for 72 hour)]×100%. GraphPad Prism 8.3 software was used to analyze the data, and nonlinear S-curve regression was used to fit the data to obtain a dose-effect curve, from which the IC50 value was calculated.

AGS cells = experiment: Proliferation inhibitory activity on AGS tumor cell line containing KRAS G12D mutation (CellTiter-Glo, 72 hours); assay type: cell-based
Source text: as §1, §2, §3, §4

Ba/F3 KRAS-G12V cells = Ba/F3 KRAS-G12V cells (Homo sapiens, UniProt P01116, G12V, cells depend on it); experiment: Proliferation inhibitory activity on Ba/F3 KRAS-G12V stably transfected cell line (CellTiter-Glo, 72 hours); assay type: cell-based, mouse; conditions: read-out: Ba/F3 KRAS-G12V IC50
Chain of Ba/F3 KRAS-G12V cells (P01116 whole entry G12V): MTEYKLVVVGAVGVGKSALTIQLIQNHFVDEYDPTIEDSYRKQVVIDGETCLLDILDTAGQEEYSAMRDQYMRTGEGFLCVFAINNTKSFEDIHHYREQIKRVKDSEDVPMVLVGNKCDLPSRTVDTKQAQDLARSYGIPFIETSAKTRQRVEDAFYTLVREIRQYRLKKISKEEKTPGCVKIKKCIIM
Source text: as §1, §2, §3, §4

Chain of Ba/F3 KRAS-G12D cells (P01116 whole entry G12D): as the sequence (P01116 whole entry G12V) above, with V12D counted along it

IC50 (AGS cells)	SMILES	GI50 (Ba/F3 KRAS-G12D cells)	IC50 (AGS cells; Homo sapiens)	GI50 (Ba/F3 KRAS-G12V cells)
–	C#Cc1c(F)ccc2cc(O)cc(-c3ncc4c(N5CCC(N)C(F)(F)C5)nc(OC[C@@]56CCCN5C[C@H](F)C6)nc4c3F)c12 (single isomer, unassigned) [Compound 20-P1]	≤ 0.1 µM	0.1 to 5 µM	5 to 10 µM
–	C#Cc1c(F)ccc2cc(O)cc(-c3nc(F)c4c(N5C[C@H]6CC[C@@H](C5)N6)nc(OC[C@@]56CCCN5C[C@H](F)C6)nc4c3F)c12 [Compound 22, 4-(4-((1R,5S)-3,8-Diazabicyclo[3.2.1]octan-3-yl)-5,8-difluoro-2-(((2R,7aS)-2-fluorohexahydro-1H-pyrrolizin-7a-yl)methoxy)pyrido[4,3-d]pyrimidin-7-yl)-5-ethynyl-6-fluoronaphthalen-2-ol]	0.002 µM	0.016 µM	5 to 10 µM
–	Cc1cc(N)nc(-c2nc(F)c3c(N4C[C@H]5CC[C@@H](C4)N5)nc(OC[C@@]45CCCN4C[C@H](F)C5)nc3c2F)c1C(F)(F)F [Compound 18, 6-(4-((1R,5S)-3,8-Diazabicyclo[3.2.1]octan-3-yl)-5,8-difluoro-2-(((2R,7aS)-2-fluorohexahydro-1H-pyrrolizin-7a-yl)methoxy)pyrido[4,3-d]pyrimidin-7-yl)-4-methyl-5-(trifluoromethyl)pyridin-2-amine bis(2,2,2-trifluoroacetate)]	0.1 to 5 µM	5 to 10 µM	5 to 10 µM
–	C#Cc1c(F)ccc2cc(O)cc(-c3ncc4c(N5C[C@@H](N)CC(F)(F)C5)nc(OC[C@@]56CCCN5C[C@H](F)C6)nc4c3F)c12 [Compound 6-P2, 4-(4-((S)-5-amino-3,3-difluoropiperidin-1-yl)-8-fluoro-2-(((2R,7aS)-2-fluorotetrahydro-1H-pyrrolizin-7a(5H)-yl)methoxy)pyrido[4,3-d]pyrimidin-7-yl)-5-ethynyl-6-fluoronaphthalen-2-ol]	≤ 0.1 µM	0.1 to 5 µM	5 to 10 µM
–	[2H]C#Cc1c(F)ccc2cc(O)cc(-c3nc(Cl)c4c(N5C[C@H]6CC[C@@H](C5)N6)nc(OC[C@@]56CCCN5C[C@H](F)C6)nc4c3F)c12 [Compound 28, 4-(4-((1R,5S)-3,8-Diazabicyclo[3.2.1]octan-3-yl)-5-chloro-8-fluoro-2-(((2R,7aS)-2-fluorotetrahydro-1H-pyrrolizin-7a(5H)-yl)methoxy)pyrido[4,3-d]pyrimidin-7-yl)-5-(ethynyl-d)-6-fluoronaphthalen-2-ol hydrochloride]	0.001 µM	0.006 µM	–
–	C#Cc1c(F)ccc2cc(O)cc(-c3ncc4c(N5[C@@H]6CC[C@H]5[C@H](F)[C@@H](N)C6)nc(OC[C@@]56CCCN5C[C@H](F)C6)nc4c3F)c12 [Compound 25, 4-(4-((1S,2R,3S,5R)-3-Amino-2-fluoro-8-azabicyclo[3.2.1]octan-8-yl)-8-fluoro-2-(((2R,7aS)-2-fluorohexahydro-1H-pyrrolizin-7a-yl)methoxy)pyrido[4,3-d]pyrimidin-7-yl)-5-ethynyl-6-fluoronaphthalen-2-ol]	1 µM	2.5 µM	5 to 10 µM
–	C#Cc1c(F)ccc2cc(O)cc(-c3ncc4c(N5C[C@H]6C[C@@]6(N)C5)nc(OC[C@@]56CCCN5C[C@H](F)C6)nc4c3F)c12 [Compound 10, 4-(4-((1S,5R)-1-Amino-3-azabicyclo[3.1.0]hexan-3-yl)-8-fluoro-2-(((2R,7aS)-2-fluorohexahydro-1H-pyrrolizin-7a-yl)methoxy)pyrido[4,3-d]pyrimidin-7-yl)-5-ethynyl-6-fluoronaphthalen-2-ol bis(2,2,2-trifluoroacetate)]	0.1 to 5 µM	0.1 to 5 µM	5 to 10 µM
–	C#Cc1c(F)ccc2cc(O)cc(-c3ncc4c(N5C[C@H](N)CC(F)(F)C5)nc(OC[C@@]56CCCN5C[C@H](F)C6)nc4c3F)c12 [Compound 6-P1, 4-(4-((R)-5-Amino-3,3-difluoropiperidin-1-yl)-8-fluoro-2-(((2R,7aS)-2-fluorotetrahydro-1H-pyrrolizin-7a(5H)-yl)methoxy)pyrido[4,3-d]pyrimidin-7-yl)-5-ethynyl-6-fluoronaphthalen-2-ol]	0.1 to 5 µM	5 to 10 µM	5 to 10 µM
–	Oc1cc(-c2nc(Cl)c3c(N4C[C@H]5CC[C@@H](C4)N5)nc(OC[C@@]45CCCN4C[C@H](F)C5)nc3c2F)c2c(F)c(F)ccc2c1 [Compound 26, 4-(4-((1R,5S)-3,8-diazabicyclo[3.2.1]octan-3-yl)-5-chloro-8-fluoro-2-(((2R,7aS)-2-fluorohexahydro-1H-pyrrolizin-7a-yl)methoxy)pyrido[4,3-d]pyrimidin-7-yl)-5,6-difluoronaphthalen-2-ol]	0.0017 µM	0.028 µM	5 to 10 µM
–	Cc1cc(N)nc(-c2nc(Cl)c3c(N4C[C@H]5CC[C@@H](C4)N5)nc(OC[C@@]45CCCN4C[C@H](F)C5)nc3c2F)c1C(F)(F)F [Compound 17, 6-(4-((1R,5S)-3,8-Diazabicyclo[3.2.1]octan-3-yl)-5-chloro-8-fluoro-2-(((2R,7aS)-2-fluorohexahydro-1H-pyrrolizin-7a-yl)methoxy)pyrido[4,3-d]pyrimidin-7-yl)-4-methyl-5-(trifluoromethyl)pyridin-2-amine bis(2,2,2-trifluoroacetate)]	0.1 to 5 µM	5 to 10 µM	5 to 10 µM
0.1 to 5 µM	C#Cc1c(F)ccc2cc(O)cc(-c3ncc4c(N5CCC(N)C(F)(F)C5)nc(OC[C@@]56CCCN5C[C@H](F)C6)nc4c3F)c12 (single isomer, unassigned) [Compound 20-P2]	0.1 to 5 µM	–	5 to 10 µM
–	C#Cc1c(F)ccc2cc(O)cc(-c3ncc4c(N5[C@H]6CC[C@@H]5[C@@H](F)[C@H](N)C6)nc(OC[C@@]56CCCN5C[C@H](F)C6)nc4c3F)c12 [Compound 24, 4-4-(4-((1R,2S,3R,5S)-3-Amino-2-fluoro-8-azabicyclo[3.2.1]octan-8-yl)-8-fluoro-2-(((2R,7aS)-2-fluorohexahydro-1H-pyrrolizin-7a-yl)methoxy)pyrido[4,3-d]pyrimidin-7-yl)-5-ethynyl-6-fluoronaphthalen-2-ol]	1.9 µM	2.5 µM	5 to 10 µM
–	C#Cc1c(F)ccc2cc(O)cc(-c3ncc4c(C5=C[C@@H]6CC[C@H](C5)N6)nc(OC[C@@]56CCCN5C[C@H](F)C6)nc4c3F)c12 [Compound 23, 4-(4-((1R,5S)-8-Azabicyclo[3.2.1]oct-3-en-3-yl)-8-fluoro-2-(((2R,7aS)-2-fluorohexahydro-1H-pyrrolizin-7a-yl)methoxy)pyrido[4,3-d]pyrimidin-7-yl)-5-ethynyl-6-fluoronaphthalen-2-ol]	–	2.5 µM	5 to 10 µM
–	[2H]C([2H])(Oc1nc(N2C[C@H]3CC[C@@H](C2)N3)c2c(Cl)nc(-c3cc(O)cc4ccc(F)c(C#C)c34)c(F)c2n1)[C@@]12CCCN1C[C@H](F)C2 [Compound 27, 4-(4-((1R,5S)-3,8-Diazabicyclo[3.2.1]octan-3-yl)-5-chloro-8-fluoro-2-(((2R,7aS)-2-fluorotetrahydro-1H-pyrrolizin-7a(5H)-yl)methoxy-d2)pyrido[4,3-d]pyrimidin-7-yl)-5-ethynyl-6-fluoronaphthalen-2-ol]	0.001 µM	0.006 µM	–
